From patent US20040186081A1, “Naaladase inhibitors for treating opioid tolerance” (Guilford Pharmaceuticals Inc., priority 2003, published 2004)
“Also recorded” adds a separate entry of the source. Peptide text beside a SMILES is read from it.

Key:
[1] = in vivo; cited from earlier work
[2] = tested on: over 100 different receptors, ion channels, transporters, and enzymes including NMDA, AMPA, metabotropic glutamate receptors and glutamate transporters; settings: cited from earlier work
C57/BL mice [3] = experiment: Acute effects in the tail-flick test (Experiment 2); format: in vivo
Protocol: (§1) Male C57/BL mice (IMP, Lodz, Poland), 22-24 g of body weight were group-housed in the standard laboratory cages and kept in a temperature-controlled colony room (21+2° C.) with a 12-hr light/dark cycle (light on: 07:00, off: 19:00). Commercial food and tap water were available ad libitum. Each experimental group consisted of 7-28 mice per treatment. All mice were used only once.
(§2) The intensity of the heat stimulus was adjusted so that the baseline tail-flick latency was ˜3 s. […] Each response assessment consisted of two separate measurements taken at different portions of the tail (spaced by 1.5-2 cm) and separated by 15 s. The mean of these responses was used for subsequent comparisons.

C57/BL mice [4] = experiment: animal or person; format: in vivo; settings: for ED50: Mus musculus, sc
Protocol: as §1, §2

NAALADase [5] = target: T1, NAALADase (Homo sapiens, UniProt Q04609); experiment: In vitro inhibition of NAALADase activity; format: biochemical; settings: for IC50: read-out: IC50
T1 sequence (Q04609 whole entry): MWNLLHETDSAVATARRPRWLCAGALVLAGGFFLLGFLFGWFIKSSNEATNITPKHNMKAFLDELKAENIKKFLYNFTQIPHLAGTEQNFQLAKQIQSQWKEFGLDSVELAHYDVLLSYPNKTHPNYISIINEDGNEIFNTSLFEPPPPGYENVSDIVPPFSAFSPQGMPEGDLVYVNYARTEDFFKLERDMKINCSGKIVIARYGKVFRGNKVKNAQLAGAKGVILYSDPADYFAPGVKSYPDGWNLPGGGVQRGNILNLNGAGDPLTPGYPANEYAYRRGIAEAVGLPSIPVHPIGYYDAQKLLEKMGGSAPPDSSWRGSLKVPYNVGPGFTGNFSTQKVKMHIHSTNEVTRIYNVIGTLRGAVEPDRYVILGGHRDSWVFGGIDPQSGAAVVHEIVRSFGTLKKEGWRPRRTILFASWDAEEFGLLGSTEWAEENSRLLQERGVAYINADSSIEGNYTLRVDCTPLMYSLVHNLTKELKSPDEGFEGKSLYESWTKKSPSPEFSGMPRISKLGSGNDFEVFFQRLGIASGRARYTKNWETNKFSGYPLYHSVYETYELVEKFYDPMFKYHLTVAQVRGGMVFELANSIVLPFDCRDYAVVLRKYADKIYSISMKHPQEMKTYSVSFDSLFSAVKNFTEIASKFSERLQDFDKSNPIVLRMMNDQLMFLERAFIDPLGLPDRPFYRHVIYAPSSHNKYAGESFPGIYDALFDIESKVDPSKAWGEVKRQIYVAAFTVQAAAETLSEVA

NAALADase [6] = target: T1, NAALADase; settings: read-out: Km of NAALADase for NAAG; cited from earlier work
[7] = target: mGluRII receptors (mGluR3) (Homo sapiens, UniProt Q14832); settings: read-out: EC50 as direct agonist at mGluRII receptors; cited from earlier work
Sequence of mGluRII receptors (mGluR3) (Q14832 23-879): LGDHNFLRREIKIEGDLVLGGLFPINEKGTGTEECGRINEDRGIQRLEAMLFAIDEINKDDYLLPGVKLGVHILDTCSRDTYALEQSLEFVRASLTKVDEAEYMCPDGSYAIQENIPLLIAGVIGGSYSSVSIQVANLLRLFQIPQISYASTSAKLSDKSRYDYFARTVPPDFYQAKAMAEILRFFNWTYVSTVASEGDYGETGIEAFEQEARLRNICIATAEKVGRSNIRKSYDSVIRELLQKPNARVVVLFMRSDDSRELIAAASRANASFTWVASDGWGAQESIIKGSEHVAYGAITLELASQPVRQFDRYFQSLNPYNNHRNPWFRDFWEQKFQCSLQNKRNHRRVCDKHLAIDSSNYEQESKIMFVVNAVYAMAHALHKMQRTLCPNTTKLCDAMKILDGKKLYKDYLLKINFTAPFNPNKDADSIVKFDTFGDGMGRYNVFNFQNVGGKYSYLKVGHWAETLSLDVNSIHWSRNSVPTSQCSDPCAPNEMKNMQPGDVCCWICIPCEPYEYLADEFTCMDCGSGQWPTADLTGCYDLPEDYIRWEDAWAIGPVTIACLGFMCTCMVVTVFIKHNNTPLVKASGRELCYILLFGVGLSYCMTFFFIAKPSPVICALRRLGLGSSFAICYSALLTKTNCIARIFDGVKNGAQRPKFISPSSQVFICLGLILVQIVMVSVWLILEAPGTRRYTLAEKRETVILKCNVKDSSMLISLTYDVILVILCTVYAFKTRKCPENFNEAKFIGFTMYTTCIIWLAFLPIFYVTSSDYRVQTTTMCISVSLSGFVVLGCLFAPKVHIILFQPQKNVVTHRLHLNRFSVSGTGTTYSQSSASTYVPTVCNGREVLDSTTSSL

Row | Structure (SMILES) | IC50 (NAALADase [5]) [nM] | further results
1 | NC1(C(=O)O)CCC2C(C(=O)O)C21 (single isomer, unassigned; (+)) [LY354740, (+)-2-aminobicyclo [3,1,0] hexane-2,6-dicarboxylic acid] | – | development of morphine tolerance [1]: inhibit the development of morphine tolerance
2 | O=C(O)CCC(CP(=O)(O)O)C(=O)O (stereo not drawn) [2-PMPA, 2-phosphonomethyl pentanedioic acid] | – | affinity for over 100 different receptors, ion channels, transporters, and enzymes [2]: no apparent affinity; effect on antinociceptive effects of morphine (C57/BL mice [3]; 100 mg/kg 2-PMPA i.p. 30 min before 1.5 or 3 mg/kg morphine s.c.): did not affect antinociceptive effects; also recorded: did not differ; tail-flick responses (AUC) compared to placebo+placebo (C57/BL mice [3]; 100 mg/kg of 2-PMPA i.p. + placebo): did not affect tail-flick responses; also recorded: did not differ from placebo+placebo treatment; effect on the development of morphine tolerance (C57/BL mice [4]; 2-PMPA 50 or 100 mg/kg given prior to each dose of morphine): attenuated the development of morphine tolerance
3 | O=C(O)c1ccc([N+](=O)[O-])c(CC(CCCS)C(=O)O)c1 (stereo not drawn) [5-carboxy-alpha-(3-mercaptopropyl)-2-nitro-benzenepropanoic acid] | 8.25 | –
4 | O=C(O)c1cc(O)ccc1CCS [5-hydroxy-2-(2-mercaptoethyl)-benzoic acid] | 9170 | –
5 | O=C(O)C(CCCS)Sc1ccccc1 (stereo not drawn) [5-mercapto-2-(phenylthio)-pentanoic acid] | 297 | –
6 | O=C(O)C(CCCS)Oc1ccccc1 (stereo not drawn) [5-mercapto-2-phenoxy-pentanoic acid] | 555 | –
7 | O=C(O)c1cc(CS)cc(C(=O)O)c1 [5-mercaptomethyl-1,3-benzenedicarboxylic acid] | – | Ki (NAALADase [5]): 6500 nM
8 | O=C(O)c1cc(C(=O)O)cc(P(=O)(O)O)c1 [5-phosphono-1,3-benzenedicarboxylic acid] | – | Ki (NAALADase [5]): 14000 nM
9 | O=C(O)c1cc(CP(=O)(O)O)cc(C(=O)O)c1 [5-phosphonomethyl-1,3-benzenedicarboxylic acid] | – | Ki (NAALADase [5]): 3100 nM
10 | O=C(NO)c1ccc(O)c(C(=O)O)c1 [6,N-Dihydroxy-isophthalamic acid] | ≥ 100000 | –
11 | O=C(O)c1cccc(CC(CCCS)C(=O)O)c1-c1ccccc1 (stereo not drawn) [6-(2-carboxy-5-mercaptopentyl)-[1,1′-biphenyl]-2-carboxylic acid] | 70 | –
12 | COC(=O)c1cc(C(=O)NO)ccc1OCc1ccccc1 [6-Benzyloxy-N-hydroxy-isophthalamic acid methyl ester] | ≥ 100000 | –
13 | O=C(NO)c1ccc(OCc2ccccc2)c(C(=O)O)c1 [6-Benzyloxy-N-hydroxy-isophthalamic acid] | ≥ 100000 | –
14 | CC12CC3CC(C)(C1)CC(N)(C3)C2 [Memantine, memantine] | – | effect on the development of morphine tolerance (C57/BL mice [4]; mouse, in vivo): produced an inhibition of morphine tolerance
15 | CN1CC[C@]23c4c5ccc(O)c4O[C@H]2[C@@H](O)C=C[C@H]3[C@H]1C5 [Morphine] | – | ED50 (C57/BL mice [3]; Mus musculus, sc, read-out: antinociceptive ED50 dose): 3 mg/kg; ED50 (C57/BL mice [4]; 24 h, read-out: Test #1 ED50 (morphine antinociceptive)): 1.49 ± 0.26 mg/kg; ED50 (C57/BL mice [4]; 192 h, read-out: Test #2 ED50 (morphine antinociceptive)): 8.85 ± 2.22 mg/kg
16 | O=C(NO)c1cc(OCC(F)(F)F)ccc1OCC(F)(F)F [N-Hydroxy-2,5-bis-(2,2,2-trifluoro-ethoxy)-benzamide] | ≥ 100000 | –
17 | Cc1ccc(C(=O)c2ccccc2C(=O)NO)cc1 [N-Hydroxy-2-(4-methyl-benzoyl)-benzamide] | ≥ 100000 | –
18 | CC(=O)N[C@@H](CC(=O)O)C(=O)N[C@@H](CCC(=O)O)C(=O)O [NAAG, N-acetyl-aspartyl-glutamate] (Ac-Asp-Glu-OH) | – | Km (NAALADase [6]): 0.54 µM; EC50 [7]: ~26000 nM
19 | COc1ccc(OC)c(CC(CCCS)C(=O)O)c1 (stereo not drawn) [alpha-(3-mercaptopropyl)-2,5-dimethoxy-benzenepropanoic acid] | 566 | –
20 | O=C(O)C(CCCS)Cc1ccc2ccccc2c1 (stereo not drawn) [alpha-(3-mercaptopropyl)-2-naphthalenepropanoic acid] | 1130 | –
21 | O=C(O)C(CCCS)Cc1cccc(C(F)(F)F)c1 (stereo not drawn) [alpha-(3-mercaptopropyl)-3-(trifluoromethyl)-benzenepropanoic acid] | 4000 | –
22 | O=C(NCc1ccccc1)c1cccc(CC(CCCS)C(=O)O)c1 (stereo not drawn) [alpha-(3-mercaptopropyl)-3-[[(phenylmethyl)amino]carbonyl]-benzenepropanoic acid] | 1130 | –
23 | O=C(O)C(CCCS)Cc1cccc(Oc2ccccc2)c1 (stereo not drawn) [alpha-(3-mercaptopropyl)-3-phenoxy-benzenepropanoic acid] | 308 | –
24 | O=C(O)C(CCCS)Cc1cccc(-c2ccccc2)c1 (stereo not drawn) [alpha-(3-mercaptopropyl)-3-phenyl-benzenepropanoic acid] | 181 | –
25 | CS(=O)(=O)c1ccc(CC(CCCS)C(=O)O)cc1 (stereo not drawn) [alpha-(3-mercaptopropyl)-4-(methylsulfonyl)-benzenepropanoic acid] | 211 | –
26 | O=C(O)C(CCCS)Cc1ccc(-c2ccccc2)cc1 (stereo not drawn) [alpha-(3-mercaptopropyl)-4-phenyl-benzenepropanoic acid] | 229 | –
27 | O=C(O)C(CCCS)Cc1ccccc1 (stereo not drawn) [alpha-(3-mercaptopropyl)-benzenepropanoic acid] | 2270 | –
